# Measurements reported in ChEMBL document CHEMBL3091297, “Antiprion compounds that reduce PrP(Sc) levels in dividing and stationary-phase cells” (Bioorg Med Chem, 2013).
# Tests used:
# [1] = cells; assay type: cell-based; details: Mus musculus, N2a-cl3, 120 h
# [2] = Inhibition of RML prion protein infected in mouse dividing ScN2a-cl3 cells expressing full length mouse PrP assessed as reduction of PrPsc level after 5 days by Western blotting analysis; assay type: cell-based; details: N2a-cl3, 120 h
# [3] = system: N2a-cl3; assay: Inhibition of RML prion protein infected in mouse dividing ScN2a-cl3 cells expressing full length mouse PrP assessed as reduction of PrPsc level at 10 uM after 5 days by ELISA; assay type: cell-based
# [4] = system: N2a-cl3; assay: Inhibition of RML prion protein infected in mouse stationary-phase ScN2a-cl3 cells expressing full length mouse PrP assessed as reduction of PrPsc level at 10 uM after 5 days by ELISA; assay type: cell-based
# [5] = in vitro; details: mouse, dividing ScN2a-cl3 cells
# [6] = Ratio of AUClast in FVB mouse brain to FVB mouse plasma; assay type: ADME; details: read-out: Ratio AUC
# [7] = Cmax in FVB mouse plasma at 10 mg/kg, po qd; assay type: ADME, organism-based; parameters: dose 10 mg/kg, route oral
# [8] = AUClast in FVB mouse plasma at 10 mg/kg, po qd; assay type: ADME, organism-based; parameters: time 0 - last, dose 10 mg/kg, route oral
# [9] = AUClast in FVB mouse brain at 10 mg/kg, po qd; assay type: ADME, organism-based; parameters: time 0 - last, dose 10 mg/kg, route oral
# [10] = Inhibition of RML prion protein infected in mouse stationary-phase ScN2a-cl3 cells expressing full length mouse PrP assessed as reduction of PrPsc level after 5 days; assay type: cell-based; details: N2a-cl3, 120 h
# [11] = Cytotoxicity against mouse stationary-phase ScN2a-cl3 cells assessed as cell viability after 5 days by calcein-AM staining-based fluorescence assay; parameters: species or system N2a-cl3; details: read-out: LC50
SMILES,EC50 [1] [nM],EC50 [2] [nM],inhibition [3] [%],inhibition [4] [%],further results
COc1cccc(Nc2nc(N)c3ccccc3n2)c1,4020,5990,–,–,–
CC(=O)c1ccc(N2CCN(Cc3c(C)n(C)n(-c4ccccc4)c3=O)CC2)cc1,–,–,64,35,–
COc1ccc(CN2CCN(c3ccc(C(C)=O)cc3)CC2)c(C)c1C,–,–,95,41,–
Nc1c(C(=O)Nc2ccc(F)cc2)sc2nc(-c3ccc4c(c3)OCO4)ccc12,750,–,–,–,CC50 at 120 h [5]: > 10000 nM
COc1ccc(-c2cc(-c3ccc(C)cc3O)[nH]n2)cc1,260,120,–,–,–
COc1ccc(-c2ccc3c(N)c(C(=O)Nc4cc(F)ccc4F)sc3n2)cc1,> 10000,–,–,–,CC50 at 120 h [5]: > 10000 nM
CC(=O)c1ccc(N2CCN(Cc3ccc(Br)s3)CC2)cc1,–,–,97,34,–
COc1ccc(-c2ccc3c(N)c(C(=O)Nc4ccc(OC)c(OC)c4)sc3n2)cc1,> 10000,–,–,–,CC50 at 120 h [5]: > 10000 nM
c1cncc(-c2nc(-c3c[nH]c4ccccc34)cs2)c1,270,830,–,–,–
COc1cc(CN2CCN(c3cccc(C)c3C)CC2)cc(Br)c1O,–,–,22,48,–
CC(=O)c1ccc(N2CCN(Cc3ccccc3)CC2)cc1,710,620,–,–,–
CCN1CCN(c2ccc(Nc3ccnc4cc5ccccc5cc34)cc2)CC1,–,–,76,51,–
Cn1c(=N)n(CC(=O)c2ccc(Br)cc2)c2ccccc21,2580,1450,–,–,–
COc1cc(CNCCO)cc(Br)c1OCc1ccccc1Cl,4830,2740,–,–,–
O=C(Nc1ccccc1)Nc1ccc(F)c(Cl)c1,–,–,87,56,–
COc1ccc(-c2ccc3c(N)c(C(=O)Nc4cc(OC)c(OC)c(OC)c4)sc3n2)cc1,420,–,–,–,CC50 at 120 h [5]: > 10000 nM
CCc1ccc(-c2cn3cc(C)sc3n2)cc1,1780,520,–,–,–
O=C(Nc1nc(-c2ccc(-c3ccccc3)cc2)cs1)C1CC1,250,190,–,–,–
CNCCc1c(-c2ccccc2)n(-c2ccccc2)c2ccccc12,–,–,81,46,–
CN1CCN(c2ccc(Nc3ccnc4cc(Cl)ccc34)cc2)CC1,1360,2070,–,–,Kp [6]: 2.59; Cmax [7]: 410 nM; AUC(0-t) [8]: 0.82 µM·h; AUC(0-t) [9]: 2.12 µM·h
CCOc1ccc(C(=O)Nc2ccc3oc(-c4ccc(OC)cc4)nc3c2)cc1,60,130,–,–,–
COc1ccc2[nH]c3c(OC)ncnc3c2c1,–,–,81,37,–
COc1ccc(-c2cc(-c3ccc(OC)cc3O)[nH]n2)cc1,70,100,–,–,–
Cc1ccc2[nH]c3c(c2c1)CCCC3NC1CCCCC1 (stereo not drawn),–,–,27,48,–

SMILES,EC50 [1] [nM],EC50 [2] [nM],inhibition [3] [%],inhibition [4] [%],further results
O=C(Nc1ccc(Cl)cc1)Nc1ccc(C(F)(F)F)cc1Cl,–,–,17,63,–
CCOc1ccc(NC(=O)c2cc3ccccc3cc2O)cc1,130,40,–,–,–
O=C(Nc1ccc(F)c(Cl)c1)Nc1ccc(Cl)c(Cl)c1,–,–,92,61,–
O=C(Nc1nc(-c2ccc3ccccc3c2)cs1)C1CC1,990,570,–,–,–
Cc1ccc2[nH]c3c(c2c1)CCCC3NCC12CC3CC(CC(C3)C1)C2 (stereo not drawn),–,–,98,53,–
Clc1ccc(N2CCN(C3CCSC3)CC2)cc1 (stereo not drawn),–,–,42,51,–
O=C(Nc1ccc(Cl)cc1)Nc1ccc(Cl)c(F)c1,–,–,25,66,–
CC(=O)c1ccc(N2CCN(Cc3ccc(F)cc3F)CC2)cc1,–,–,85,30,–
CC(=O)c1ccc(N2CCN(Cc3cccnc3)CC2)cc1,–,890,–,–,–
CC(=O)c1ccc(N2CCN(CC(C)CCC=C(C)C)CC2)cc1 (stereo not drawn),–,–,78,55,–
COc1ccc(CNC(=O)c2sc3nc(-c4cccs4)ccc3c2N)cc1,1830,–,–,–,CC50 at 120 h [5]: > 10000 nM
Nc1c(C(=O)Nc2cc(F)ccc2F)sc2nc(-c3ccncc3)ccc12,2220,–,–,–,CC50 at 120 h [5]: > 10000 nM
N#Cc1sc2nc(-c3ccc4c(c3)OCO4)ccc2c1N,980,520,–,–,Kp [6]: 4.72; Cmax [7]: 130 nM; AUC(0-t) [8]: 1.56 µM·h; AUC(0-t) [9]: 7.36 µM·h
Cc1[nH]c2ccccc2c1-c1csc(-c2cccnc2)n1,3130,1700,–,–,–
N#Cc1ccc(/C=C/c2ccc(F)cc2)cc1,1520,530,–,–,–
CC(=O)c1ccc(NC(=O)c2sc3nc4c(cc3c2N)CCCC4)cc1,> 10000,–,–,–,CC50 at 120 h [5]: > 10000 nM
Cc1ccc2[nH]c3c(c2c1)CCCC3NCCCN(C)C (stereo not drawn),1580,–,88,94,EC50 [10]: 7500 nM; CC50 at 120 h [11]: > 10000 nM; CC50 at 120 h [5]: > 10000 nM
Cn1c(=N)n(CC(=O)c2ccc(Cl)cc2)c2ccccc21,7320,4970,–,–,–
O=C(Nc1ccc(Cl)c(Cl)c1)NC(CC(=O)c1ccc([N+](=O)[O-])cc1)C(Cl)(Cl)Cl (stereo not drawn),–,–,83,61,–
COc1ccc(-c2ccc3c(N)c(C(=O)Nc4ccc(F)cc4)sc3n2)cc1OC,240,–,–,–,CC50 at 120 h [5]: > 10000 nM
COc1ccc(-c2nc3cc(NC(=O)c4ccc(OCc5ccccc5)cc4)ccc3o2)cc1,70,2570,–,–,–
COc1ccc(CCNC(=O)c2sc3nc(-c4cccs4)ccc3c2N)cc1OC,> 10000,–,–,–,CC50 at 120 h [5]: > 10000 nM
COc1ccccc1OCCNCC(O)COc1cccc2[nH]c3ccccc3c12 (stereo not drawn) [CARVEDILOL],2280,–,–,–,–
Cc1ccc2c(c1)c1c(n2CC(O)CO)C(=O)CCC1 (stereo not drawn),–,–,14,39,–

SMILES,EC50 [1] [nM],EC50 [2] [nM],inhibition [3] [%],inhibition [4] [%],further results
COc1ccc2cc1Oc1ccc(cc1)C[C@H]1c3cc(c(OC)cc3CCN1C)Oc1c(OC)c(OC)cc3c1[C@H](C2)N(C)CC3 [FANCHININ],2150,–,–,–,CC50 at 120 h [5]: 5010 nM
Nc1c(C(=O)Nc2ccc3c(c2)OCCO3)sc2nc(-c3cccs3)ccc12,420,–,–,–,CC50 at 120 h [5]: > 10000 nM
CCc1ccc(-c2cn3cc(C)ccc3n2)cc1,710,290,–,–,–
CC(=O)c1ccc(N2CCN(Cc3ccccc3Cl)CC2)cc1,–,–,86,41,–
COc1ccc2cc3c(N)c(C(=O)Nc4ccc(C(C)=O)cc4)sc3nc2c1,80,60,–,–,CC50 at 120 h [5]: > 10000 nM
c1ccc2cc(-c3cn4ccsc4n3)ccc2c1,6020,2490,–,–,–
COc1ccc(-c2ccc3c(N)c(C(=O)Nc4ccc(F)cc4)sc3n2)cc1,140,–,–,–,CC50 at 120 h [5]: > 10000 nM
CC(=O)c1ccc(N2CCN(Cc3cccc(Cl)c3)CC2)cc1,–,–,84,31,–
CCc1ccc(-c2cn3ccccc3n2)cc1,9160,4720,–,–,–
OCCNCc1cc(Br)ccc1OCc1ccc(Cl)cc1Cl,4300,1990,–,–,–
COc1ccc(-c2ccc3c(N)c(C(=O)Nc4ccc(SC)cc4)sc3n2)cc1,290,–,–,–,CC50 at 120 h [5]: > 10000 nM
Oc1ccc(/C=C/c2cc(O)cc(O)c2)cc1 [RESVERATROL],3060,580,–,–,–
O=C(Nc1ccc(Br)cc1)Nc1cc(Cl)cc(Cl)c1,–,–,91,51,–
COc1ccc(C(=O)Nc2ccc(-c3csc(C)n3)cc2)cc1,400,160,–,–,–
CC(=O)c1ccc(N2CCN(Cc3cccc(Br)c3)CC2)cc1,–,–,67,39,–
CN1C[C@H](C(=O)N[C@]2(C)O[C@@]3(O)[C@@H]4CCCN4C(=O)[C@H](Cc4ccccc4)N3C2=O)C[C@@H]2c3cccc4[nH]cc(c34)C[C@H]21 [DIHYDROERGOTAMINE],6440,–,–,–,CC50 at 120 h [5]: > 10000 nM
CCOc1ccc(/N=N/c2ccc(N)cc2N)cc1 [ETHOXAZENE],4760,–,–,–,CC50 at 120 h [5]: > 10000 nM
CC(=O)c1ccc2c(c1)N(CCCN(C)C)c1ccccc1S2 [ACEPROMAZINE],6930,–,–,–,CC50 at 120 h [5]: > 10000 nM
CN1CCc2cccc3c2[C@H]1Cc1ccc(O)c(O)c1-3 [APOMORPHINE],> 10000,–,–,–,CC50 at 120 h [5]: > 10000 nM
Nc1c(/N=N/c2ccc(-c3ccc(/N=N/c4cc(S(=O)(=O)O)c5ccccc5c4N)cc3)cc2)cc(S(=O)(=O)O)c2ccccc12 [CONGO RED],450,–,–,–,CC50 at 120 h [5]: > 10000 nM
COc1cc(N)c(-c2ccc3cc(OC)c(OC)cc3n2)cc1OC,2560,1830,–,–,–
CC(=O)c1ccc(NC(=O)c2sc3nc(-c4cccs4)ccc3c2N)cc1,100,–,–,–,CC50 at 120 h [5]: > 10000 nM
CN(C)CCNc1nc(-c2ccc(Cl)cc2)nc2ccccc12,2650,2010,–,–,–
